PMC8070968, “The Alteration of L-Carnitine Transport and Pretreatment Effect under Glutamate Cytotoxicity on Motor Neuron-Like NSC-34 Lines” (Pharmaceutics, 2021)

Key:
OCTN1/slc22a4 = biological target: T1, OCTN1/slc22a4 (Mus musculus, UniProt Q9Z306); experiment: [3H]L-carnitine uptake in NSC-34 cells with mOCTN1 siRNA knockdown; assay type: cell-based
T1 sequence (Q9Z306 1-553): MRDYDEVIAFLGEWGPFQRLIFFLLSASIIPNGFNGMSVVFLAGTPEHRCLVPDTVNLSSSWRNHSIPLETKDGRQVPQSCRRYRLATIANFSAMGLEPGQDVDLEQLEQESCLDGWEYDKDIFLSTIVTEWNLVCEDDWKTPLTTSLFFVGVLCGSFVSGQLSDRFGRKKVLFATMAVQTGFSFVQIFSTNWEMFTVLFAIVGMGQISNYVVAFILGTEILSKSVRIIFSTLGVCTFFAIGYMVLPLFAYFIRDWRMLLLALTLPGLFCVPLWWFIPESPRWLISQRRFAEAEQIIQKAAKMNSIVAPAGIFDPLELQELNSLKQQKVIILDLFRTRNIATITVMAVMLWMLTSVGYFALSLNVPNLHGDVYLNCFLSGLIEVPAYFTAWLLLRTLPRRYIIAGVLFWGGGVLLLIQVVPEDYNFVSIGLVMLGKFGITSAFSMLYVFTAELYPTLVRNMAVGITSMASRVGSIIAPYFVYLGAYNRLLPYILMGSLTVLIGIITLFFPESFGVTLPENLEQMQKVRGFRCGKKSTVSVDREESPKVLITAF

OCTN2/slc22a5 = biological target: T2, OCTN2/slc22a5 (Mus musculus, UniProt Q9Z0E8); experiment: [3H]L-carnitine uptake in NSC-34 cells with mOCTN2 siRNA knockdown; assay type: cell-based
T2 sequence (Q9Z0E8 1-557): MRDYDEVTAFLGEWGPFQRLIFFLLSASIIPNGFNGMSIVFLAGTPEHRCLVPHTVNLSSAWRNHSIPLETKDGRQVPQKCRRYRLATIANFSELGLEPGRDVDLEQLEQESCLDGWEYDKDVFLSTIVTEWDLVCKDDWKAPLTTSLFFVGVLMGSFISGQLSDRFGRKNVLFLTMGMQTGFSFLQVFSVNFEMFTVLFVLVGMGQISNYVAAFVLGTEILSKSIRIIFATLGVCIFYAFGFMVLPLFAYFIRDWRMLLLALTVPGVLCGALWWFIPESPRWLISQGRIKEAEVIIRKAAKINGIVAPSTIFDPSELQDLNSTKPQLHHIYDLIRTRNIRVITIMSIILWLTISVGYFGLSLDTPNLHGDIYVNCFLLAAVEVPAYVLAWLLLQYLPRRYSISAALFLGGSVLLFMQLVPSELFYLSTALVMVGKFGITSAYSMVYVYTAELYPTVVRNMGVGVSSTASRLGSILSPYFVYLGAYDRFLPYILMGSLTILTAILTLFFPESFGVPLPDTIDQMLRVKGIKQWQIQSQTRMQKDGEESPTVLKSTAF

Structure (SMILES): C[N+](C)(C)C[C@H](O)CC(=O)[O-] [LC, L-carnitine]
- [3H]L-carnitine uptake in NSC-34 cells with mOCTN1 siRNA knockdown (OCTN1/slc22a4): OCTN1/slc22a4 and OCTN2/slc22a5 siRNA transfection study revealed both transporters are involved in LC transport in NSC-34 cell lines
- [3H]L-carnitine uptake in NSC-34 cells with mOCTN2 siRNA knockdown (OCTN2/slc22a5): mOCTN1 and mOCTN2 siRNA-transfected NSC-34 cell lines demonstrated a significant decrease in the slc22a4 and slc22a5 gene expression level
